Data published in patent US11629139B2 (priority 2017, dated 2023).

Test system: vesicular stomatitis virus particles (VSV) pseudotyped with EboV Zaire GP
Assay: microbe, parasite or virus in culture
Format: cell-based
Conditions: Vesicular stomatitis virus

Compound	IC50 [nM]
COC(=O)c1ccc(COc2ccccc2C(C)N2CCN(C(=O)CNC(=O)CC34CC5CC(CC(C5)C3)C4)CC2)cc1 (stereo not drawn) [Compound 1122]	~2000
N#Cc1ccc(COc2ccc(Cl)cc2CN2CCN(C(=O)CNC(=O)C3CC34CCC(F)(F)CC4)CC2)nc1 (stereo not drawn) [Compound 1622, 6,6-Difluoro-spiro[2.5]octane-1-carboxylic acid (2-{4-[5-chloro-2-(5-cyano-pyridin-2-ylmethoxy)-benzyl]-piperazin-1-yl)-2-oxo-ethyl)-amide]	19
O=C(CC1CCC(F)(F)CC1)NCC(=O)N1CCN(Cc2cccc(Cl)c2Cl)CC1 [Compound 1382, N-(2-(4-(2,3-Dichlorobenzyl)piperazin-1-yl)-2-oxoethyl)-2-(4,4-difluorocyclohexyl)acetamide]	> 2000
Nc1ccc(CN2CCN(C(=O)CNC(=O)CC34CC5CC(CC(C5)C3)C4)CC2)cc1Cl [Compound 1250]	800
CC1(CC(=O)NCC(=O)N2CCN(Cc3ccccc3OCc3ccc(Br)cc3)CC2)CCCCC1 [Compound 1142]	520
COC(=O)c1ccc(COc2ccccc2CN2CCN(C(=O)CNC(=O)C3CC34CCCCC4)CC2)cc1 (stereo not drawn) [Compound 1316, Methyl 4-((2-((4-((spiro[2.5]octane-1-carbonyl)glycyl)piperazin-1-yl)methyl)phenoxy)methyl)benzoate]	70
O=C(CC1CCC(F)(F)CC1)NCC(=O)N1CCN(Cc2cc(Cl)cc(F)c2F)CC1 [Compound 1369, N-(2-(4-(5-Chloro-2,3-difluorobenzyl)piperazin-1-yl)-2-oxoethyl)-2-(4,4-difluorocyclohexyl)acetamide]	> 2000
COC(=O)c1ccc(COc2ccc(Cl)cc2CN2CCN(C(=O)CNC(=O)C3CC3(F)F)CC2)cc1 (stereo not drawn) [Compound 1357, Methyl 4-((4-chloro-2-((4-((2,2-difluorocyclopropane-1-carbonyl)glycyl)piperazin-1-yl)methyl)phenoxy)methyl)benzoate]	500
CS(=O)(=O)c1ccc(Oc2cc(Cl)cc(CN3CCN(C(=O)CNC(=O)C4CC45CCC(F)(F)CC5)CC3)c2)cc1 (stereo not drawn) [Compound 1461]	150
[2H]C([2H])(c1cc(Cl)ccc1NCC)N1CCN(C(=O)CNC(=O)C2CC23CCC(F)(F)CC3)CC1 (stereo not drawn) [Compound 1534]	200
O=C(CC1CCC(F)(F)CC1)NCC(=O)N1CCN(Cc2ccc(F)c(Cl)c2F)CC1 [Compound 1408]	4000
O=C(CC1CCC(F)(F)CC1)NCC(=O)N1CCN(Cc2cc(Cl)ccc2O)CC1 [Compound 1403, N-(2-(4-(5-Chloro-2-hydroxybenzyl)piperazin-1-yl)-2-oxoethyl)-2-(4,4-difluorocyclohexyl)acetamide]	190 to 730
O=C(NCC(=O)N1CCN(Cc2cc(Br)ccc2Cl)CC1)C1C2CC(F)(F)CC21 (stereo not drawn) [Compound 1356, N-(2-(4-(5-bromo-2-chlorobenzyl)piperazin-1-yl)-2-oxoethyl)-3,3-difluorobicyclo[3.1.0]hexane-6-carboxamide]	> 2000
COC(=O)c1ccc(COc2ccccc2CN2CCN(C(=O)CNC(=O)C3CC3(C)C)CC2)cc1 (stereo not drawn) [Compound 1317, Methyl 4-((2-((4-((2,2-dimethylcyclopropane-1-carbonyl)glycyl)piperazin-1-yl)methyl)phenoxy)methyl)benzoate]	400
O=C(NCC(=O)N1CCN(Cc2cc(Cl)ccc2O)CC1)C1CC1c1ccc(F)cc1 (stereo not drawn) [Compound 1425, N-(2-(4-(5-Chloro-2-hydroxybenzyl)piperazin-1-yl)-2-oxoethyl)-2-(4-fluorophenyl)cyclopropane-1-carboxamide]	3400
COC(=O)c1ccc(COc2ccc([N+](=O)[O-])cc2CN2CCN(C(=O)CNC(=O)CC34CC5CC(CC(C5)C3)C4)CC2)cc1 [Compound 1113]	< 2000
O=C(CC1CCC(F)(F)CC1)NCC(=O)N1CCN(Cc2cc(Br)ccc2NC(=O)C2CC2)CC1 [Compound 1375, N-(4-Bromo-2-((4-((2-(4,4-difluorocyclohexyl)acetyl)glycyl)piperazin-1-yl)methyl)phenyl)cyclopropanecarboxamide]	> 2000
O=C(CC12CC3CC(CC(C3)C1)C2)NCC(=O)N1CCN(Cc2cc(Cl)cc(F)c2F)CC1 [Compound 1327, 2-((1R,3R,5S)-Adamantan-1-yl)-N-(2-(4-(5-chloro-2,3-difluorobenzyl)piperazin-1-yl)-2-oxoethyl)acetamide]	670
COC(=O)c1ccc(COc2ccccc2CN2CCN(C(=O)CNC(=O)CC(C)(C)c3ccccc3)CC2)cc1 [Compound 1279]	1500
CS(=O)(=O)c1ccc(COc2ccc(Cl)cc2CN2CCN(C(=O)CNC(=O)C3CC34CCCCC4)CC2)cc1 (stereo not drawn) [Compound 1539, Spiro[2.5]octane-1-carboxylic acid (2-{4-[5-chloro-2-(4-methanesulfonyl-benzyloxy)-benzyl]-piperazin-1-yl}-2-oxo-ethyl)-amide]	100
O=C(Nc1ccccc1)Nc1ncc(Cl)cc1CN1CCN(C(=O)CNC(=O)C2CC23CCC(F)(F)CC3)CC1 (stereo not drawn) [Compound 1392, N-(2-(4-((5-Chloro-2-(3-phenylureido)pyridin-3-yl)methyl)piperazin-1-yl)-2-oxoethyl)-6,6-difluorospiro[2.5]octane-1-carboxamide]	1000
O=C(CC1CCC(F)(F)CC1)NCC(=O)N1CCN(Cc2cc(Br)ccc2O)CC1 [Compound 1400, N-(2-(4-(5-Bromo-2-hydroxybenzyl)piperazin-1-yl)-2-oxoethyl)-2-(4,4-difluorocyclohexyl)acetamide]	670
N#Cc1ccc(Br)cc1CN1CCN(C(=O)CNC(=O)CC2CCC(F)(F)CC2)CC1 [Compound 1371, N-(2-(4-(5-Bromo-2-cyanobenzyl)piperazin-1-yl)-2-oxoethyl)-2-(4,4-difluorocyclohexyl)acetamide]	> 2000
CNS(=O)(=O)c1ccc(COc2ccccc2CN2CCN(C(=O)CNC(=O)CC34CC5CC(CC(C5)C3)C4)CC2)cc1 [Compound 1257]	300
COC(=O)c1ccc(COc2ccccc2CN2CCN(C(=O)CNC(=O)C3CCC(F)(F)CC3)CC2)cc1 [Compound 1298]	1500
[2H]C([2H])(c1cc(Cl)ccc1NCc1ccon1)N1CCN(C(=O)CNC(=O)[C@@H]2CC23CCC(F)(F)CC3)CC1 [Compound 1581]	470
CN(C)C(=O)c1ccc(COc2ccccc2CN2CCN(C(=O)CNC(=O)CC34CC5CC(CC(C5)C3)C4)CC2)cc1 [Compound 1802]	3300
O=C(CC1CCC(F)(F)CC1)NCC(=O)N1CCN(Cc2cc(Cl)cc(Cl)c2)CC1 [Compound 1383, N-(2-(4-(3,5-dichlorobenzyl)piperazin-1-yl)-2-oxoethyl)-2-(4,4-difluorocyclohexyl)acetamide]	> 2000
O=C(CC1CCC(F)(F)CC1)NCC(=O)N1CCN(Cc2cc(Cl)ccc2F)CC1 [Compound 1367, N-(2-(4-(5-chloro-2-fluorobenzyl)piperazin-1-yl)-2-oxoethyl)-2-(4,4-difluorocyclohexyl)acetamide]	> 2000
COC(=O)c1ccc(COc2ccccc2CN2CCN(C(=O)CNC(=O)CC34CC5CC(C3)CC(C(=O)O)(C5)C4)CC2)cc1 [Compound 1277, (1s,3r,5R,7S)-3-(2-((2-(4-(2-((4-(Methoxycarbonyl)benzyl)oxy)benzyl)piperazin-1-yl)-2-oxoethyl)amino)-2-oxoethyl)adamantane-1-carboxylic acid]	> 2000
